Measurements published in patent publication US20120029054A1, “RNA Interference Mediated Inhibition of GATA Binding Protein 3 (GATA3) Gene Expression Using Short Intefering Nucleic Acid (siNA)” (Merck Sharp & Dohme Corp., priority 2009, published 2012).
[invAb] = inverted abasic unit; m = 2'-O-methyl; r = 2'-OH (RNA); f = 2'-fluoro

What was measured:
GATA3 mRNA [1] = assay: GATA3 mRNA knock-down (Taqman qRT-PCR) after RNAiMax transfection of human MCF7 cells; screen and IC50 dose response; assay type: cell-based; details: 10 nM siNA, MCF7 cells, 24 hrs, average of 3 experiments
Procedure: MCF7 (human; ATCC cat# HTB-22): Cells were cultured at 37° C. in the presence of 5% CO2 and grown in Eagle's Minimum Essential medium with supplemented with fetal bovine serum at a final concentration of 10% and 100 μg/mL of streptomycin and 100 U/mL penicillin.
(§1) Cells were plated in all wells of a tissue-culture treated, 96-well plate at a final count of 5000 cells/well in 100 μL of the appropriate culture media. The cells were cultured for 24 hours after plating at 37° C. in the presence of 5% CO2.
(§2) After 24 hours, complexes containing siNA and RNAiMax were created as follows: A solution of RNAiMax diluted 33-fold in OPTI-MEM was prepared. In parallel, solutions of the siNAs for testing were prepared to a final concentration of 120 nM in OPTI-MEM. After incubation of RNAiMax/OPTI-MEM solution at room temperature for 5 min, an equal volume of the siNA solution and the RNAiMax solution were added together for each of the siNAs.
(§3) This solution was incubated at room temperature for 20 minutes. After incubation, 20 uL of the solution was added to each of the relevant wells. The final concentration of siNA in each well was 10 nM and the final volume of RNAiMax in each well was 0.3 ul.
(§4) The time of incubation with the RNAiMax-siNA complexes was 24 hours and there was no change in media between transfection and harvesting, unless otherwise indicated.
(§5) RNA was extracted from a 96-well plate using the TaqMan® Gene Expression Cells-to-CT™ Kit (Cat#4399002) with a modified protocol. Briefly, a 60 uL (1 plate) or 110 uL (2 plates) of the Lysis Solution with DNase I was dispensed into each well of the Lysis Buffer Plate (twin.tec full skirt plate). The lysis buffer and stop plates were stored at 4° C. until the cells were washed.
(§6) The plate was spun at 1100 rpm for 5 minutes. The culture medium was aspirated and discarded from the wells of the culture plate. The lysis was performed automatically using a BioMek FX instrument and method. After the Biomek method was completed, the lysis plate was incubated for 2 min. at room temperature. The lysis plate can be stored for 2 hours at 4° C., or at −20° C. or −80° C. for two months.
(§7) Each well of the reverse transcription plate required 10 uL of 2× reverse transcriptase Buffer, 1 uL of 20× reverse transcription enzyme and 2 uL of nuclease-free water. The reverse transcription master mix was prepared by mixing 2× reverse transcription buffer, 20× reverse transcription enzyme mix, and nuclease-free water. 13 uL of the reverse transcription master mix was dispensed into each well of the reverse transcription plate (semi-skirted). A separate reverse transcription plate was prepared for each cell plate. The plate was loaded onto a Biomek NX or Biomek FX Dual-96 and the Biomek method was run. The program is programmed to automatically added 7 uL of lysate from the cell lysis procedure described above into each well of the reverse transcription plate. The plate is sealed and spun on a centrifuge (1000 rpm for 30 seconds) to settle the contents to the bottom of the reverse transcription plate. The plate is placed in a thermocycler at 37° C. for 60 min, 95° C. for 5 min, and 4° C. until the plate is removed from the thermocycler. Upon removal, if not used immediately, the plate was frozen at −20° C.
(§8) A series of probes and primers were used to detect the various mRNA transcripts of the genes of β-Actin (human cell line only), and of GATA3 and GAPDH in mouse and human cell lines. All Taqman probes and primers for the experiments here-in described were supplied as pre-validated sets by Applied Biosystems, Inc. (see Table 2).
(§9) The assays were performed on an ABI 7900 instrument, according to the manufacturer's instructions. A TaqMan Gene Expression Master Mix (provided in the Cells-to-CT™, Applied Biosystems, Cat #4399002) was used. The PCR reactions were carried out at 50° C. for 2 min, 95° C. for 20 min followed by 40 cycles at 95° C. for 15 secs and 60° C. for 1 min. […]

GATA3 mRNA [2] = assay: GATA3 mRNA knock-down (Taqman qRT-PCR) after RNAiMax transfection of mouse RAG cells; assay type: cell-based; details: 10 nM siNA, 24 hrs, average of 2 experiments
Procedure: RAG (murine; ATCC cat# CCL-142): Cells were cultured at 37° C. in the presence of 5% CO2 and grown in Eagle's Minimum Essential medium with supplemented with 10% of fetal bovine serum, 100 μg/mL of streptomycin, and 100 U/mL penicillin.
as §1, §2, §3, §4, §5, §6, §7, §8, §9

Substance	% KD Human (GATA3 mRNA [1])	% KD Mouse (GATA3 mRNA [2])
30245-DC: GATA3 siNA duplex, site 1829: sense B GccAuccAGccuGuccuuu TTB (SEQ 43), antisense AAAGGAcAGGcuGGAuGGcUU (SEQ 44) (sense GCCAUCCAGCCUGUCCUUUTT; antisense AAAGGACAGGCUGGAUGGCUU; chemistry not fully specified)	24 ± 2%	20 ± 7%
30246-DC: GATA3 siNA duplex, site 1883: sense B GGGuuAGAGcccuGcucGA TTB (SEQ 45), antisense UCGAGcAGGGcucuAAcccUU (SEQ 46) (sense GGGUUAGAGCCCUGCUCGATT; antisense UCGAGCAGGGCUCUAACCCUU; chemistry not fully specified)	−6 ± 19%	−1 ± 2%
30247-DC: GATA3 siNA duplex, site 763: sense B GGGccAcGGuGcAGAGGuA TTB (SEQ 47), antisense UACcucuGcAccGuGGcccUU (SEQ 48) (sense GGGCCACGGUGCAGAGGUATT; antisense UACCUCUGCACCGUGGCCCUU; chemistry not fully specified)	−7 ± 17%	−25 ± 14%
30248-DC: GATA3 siNA duplex, site 643: sense B cGGGccucAGccAcuccuA TTB (SEQ 49), antisense UAGGAGuGGcuGAGGcccGUU (SEQ 50) (sense CGGGCCUCAGCCACUCCUATT; antisense UAGGAGUGGCUGAGGCCCGUU; chemistry not fully specified)	18 ± 4%	1 ± 5%
30249-DC: GATA3 siNA duplex, site 673: sense B cGcAGuAcccGcuGccGGA TTB (SEQ 51), antisense UCCGGcAGcGGGuAcuGcGUU (SEQ 52) (sense CGCAGUACCCGCUGCCGGATT; antisense UCCGGCAGCGGGUACUGCGUU; sense: DNA at AGT, 2'-fluoro at CU, [invAb] at 5' end, 3' end, backbone not given here; antisense: sugars from the 5' end rrrmmfmmfmmmfmffmfmmm, backbone not given here)	1 ± 19%	−12 ± 2%
30250-DC: GATA3 siNA duplex, site 727: sense B GcAAccAcGucccGcccuA TTB (SEQ 53), antisense UAGGGcGGGAcGuGGuuGcUU (SEQ 54) (sense GCAACCACGUCCCGCCCUATT; antisense UAGGGCGGGACGUGGUUGCUU; chemistry not fully specified)	6 ± 9%	−9 ± 8%
30251-DC: GATA3 siNA duplex, site 735: sense B GucccGcccuAcuAcGGAA TTB (SEQ 55), antisense UUCcGuAGuAGGGcGGGAcUU (SEQ 56) (sense GUCCCGCCCUACUACGGAATT; antisense UUCCGUAGUAGGGCGGGACUU; sense: DNA at AGT, 2'-fluoro at CU, [invAb] at 5' end, 3' end, backbone not given here; antisense: sugars from the 5' end rrrfmfmmfmmmmfmmmmfmm, backbone not given here)	−127 ± 32%	−30 ± 18%
30252-DC: GATA3 siNA duplex, site 1084: sense B cccGGcAGGAcGAGAAAGA TTB (SEQ 57), antisense UCUuucucGuccuGccGGGUU (SEQ 58) (sense CCCGGCAGGACGAGAAAGATT; antisense UCUUUCUCGUCCUGCCGGGUU; sense: DNA at AGT, 2'-fluoro at C, [invAb] at 5' end, 3' end, backbone not given here; antisense: sugars from the 5' end rrrfffffmffffmffmmmmm, backbone not given here)	−3 ± 2%	0 ± 4%
